Experimental findings from patent US11111251B2, “Positive allosteric modulators of the muscarinic acetylcholine receptor M1” (Vanderbilt University, priority 2016, dated 2021) are described below.

The structures appear in SMILES notation. Like-named read-outs stand apart in the source and are kept apart here. Some results are limits rather than exact numbers.

This assay deals with T1, human mAChR M1 (Homo sapiens, UniProt P11229).
T1 sequence (P11229 1-460): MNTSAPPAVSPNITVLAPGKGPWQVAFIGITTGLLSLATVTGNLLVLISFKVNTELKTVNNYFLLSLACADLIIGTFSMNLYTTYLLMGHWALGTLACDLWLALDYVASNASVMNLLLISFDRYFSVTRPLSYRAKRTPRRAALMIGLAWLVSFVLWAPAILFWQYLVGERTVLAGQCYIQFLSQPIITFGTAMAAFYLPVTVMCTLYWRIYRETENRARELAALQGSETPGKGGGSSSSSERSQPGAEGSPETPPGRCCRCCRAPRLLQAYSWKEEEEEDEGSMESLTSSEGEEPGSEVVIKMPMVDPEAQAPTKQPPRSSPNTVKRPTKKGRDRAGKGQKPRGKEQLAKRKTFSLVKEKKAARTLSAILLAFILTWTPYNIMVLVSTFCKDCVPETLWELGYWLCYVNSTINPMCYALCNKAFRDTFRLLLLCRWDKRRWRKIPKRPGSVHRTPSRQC
Description: mAChR M1 cell-based functional assay: calcium mobilization, positive allosteric modulator mode (increase in EC20 acetylcholine response). The conditions noted are these: for Emax: read-out: Human M1 Emax (%). An outline of the steps:
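Calcium-flux assay in CHO-K1 cells stably expressing human M1, loaded with Fluo-4 AM (50 min, 37 °C) and read at 1 Hz. Compound (11-point, 1:3 series) was added at 4 s, EC20 acetylcholine at 144 s and EC80 at 230 s. PAM activity is the concentration-dependent rise in the EC20 response, fitted with a four-parameter logistic.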
(In general: Calcium flux is commonly read through the fluorescence of an indicator in the cells.)

The mark [1] stands for this setting: Table 2, human M1, read-out: Human M1 EC50.
[2] abbreviates: Table 1, mAChR M1 cell-based functional assay, PAM mode, species not given, read-out: EC50.

The EC50 is the concentration giving half of the maximal effect. What is called Emax is the greatest response seen or fitted, relative to the assay's reference. For `O=C(c1cc(Cc2ccc(-n3cccn3)cc2)c2sccc2n1)N1CCC[C@@H](O)C1` [Compound 81, [(3R)-3-hydroxy-1-piperidyl]-[7-[(4-pyrazol-1-ylphenyl)methyl]thieno[3,2-b]pyridin-5-yl]methanone], the EC50 under setting [1] was above 10 µM. Under “Table 2, human M1”, the Emax stood at 33%.

On to `Cc1csc2c(Cc3ccc(-n4cccn4)cc3)cc(C(=O)NC3CCCCNC3=O)nc12` (stereo not shown) [Compound 123, 3-methyl-N-(2-oxoazepan-3-yl)-7-[(4-pyrazol-1-ylphenyl)methyl]thieno[3,2-b]pyridine-5-carboxamide], for which the EC50 under setting [1] amounted to 0.435 µM. In addition, the Emax (Table 2, human M1) is 28.8%.

`Cc1ccc(Cc2cc(C(=O)N[C@@H]3CCCCC[C@H]3O)nc3c(C)csc23)cn1` [Compound 107]: under setting [1], the EC50 was found to be 0.474 µM. For the same compound, where the note is “Table 2, human M1”, the Emax stood at 88.5%.

For `Cc1ccc(Oc2cc(C(=O)NC3CC(F)C3)nc3ccsc23)cn1` (stereo not shown) [Compound 17, N-(3-fluorocyclobutyl)-7-[(6-methyl-3-pyridyl)oxy]thieno[3,2-b]pyridine-5-carboxamide], the EC50 is above 10 µM.

Turning to `O=C(N[C@H]1CCOC[C@@H]1O)c1cc(Cc2c(F)cc(-c3cscn3)cc2F)c2sccc2n1` [Compound 270, 7-[(2,6-difluoro-4-thiazol-4-yl-phenyl)methyl]-N-[(3R,4S)-3-hydroxytetrahydropyran-4-yl]thieno[3,2-b]pyridine-5-carboxamide], the EC50 under setting [1] came to 0.0397 µM. Where the note is “Table 2, human M1”, the Emax amounted to 78.5%.

In the case of `O=C(NC1COC1)c1cc(Cc2ccc(-n3cccn3)cc2)c2sccc2n1` [Compound 279, N-(oxetan-3-yl)-7-[(4-pyrazol-1-ylphenyl)methyl]thieno[3,2-b]pyridine-5-carboxamide], the EC50 under setting [1] was 1.05 µM. Besides, the Emax (Table 2, human M1) was 68.7%.

For `Cn1ccc(-c2ccc(Cc3cc(C(=O)NC4CC5(COC5)C4)nc4ccsc34)cc2)n1` [Compound 252, 7-[[4-(1-methylpyrazol-3-yl)phenyl]methyl]-N-(2-oxaspiro[3.3]heptan-6-yl)thieno[3,2-b]pyridine-5-carboxamide], the EC50 under setting [1] was 0.258 µM. For the same compound, the Emax (Table 2, human M1) is 78.4%.

Regarding `Cc1ncc(Cc2cc(C(=O)NC3C4CC5CC3CC(O)(C5)C4)nc3ccsc23)s1` [Compound 142, N-(1S)-5-hydroxy-2-adamantyl]-7-[(2-methylthiazol-5-yl)methyl]thieno[3,2-b]pyridine-5-carboxamide], the EC50 under setting [1] was found to be 4.95 µM. For the same compound, the Emax (Table 2, human M1) came to 23.9%.

As for `Cc1ccc(Cc2cc(C(=O)NC3CCCCC3)nc3ccsc23)cn1` [Compound 43, N-cyclohexyl-7-[(6-methyl-3-pyridyl)methyl]thieno[3,2-b]pyridine-5-carboxamide], the EC50 under setting [2] came out at 1.99 µM.

On to `CN1CCCC(NC(=O)c2cc(Cc3ccc(-c4cscn4)cc3)c3sccc3n2)C1` (stereo not shown) [Compound 210, N-(1-methyl-3-piperidyl)-7-[(4-thiazol-4-ylphenyl)methyl]thieno[3,2-b]pyridine-5-carboxamide], for which the EC50 under setting [1] came out at 2.34 µM. Besides, the Emax (Table 2, human M1) was determined as 82.2%.

Consider `Cn1ncc2nc(C(=O)N[C@H]3CCC[C@@H]3O)cc(Cc3ccc(-c4cscn4)cc3)c21` [Compound 491, N-[(1S,2S)-2-hydroxycyelopentyl]-1-methyl-7-[(4-thiazol-4-ylphenyl)methyl]pyrazolo-[4,3-b]pyridine-5-carboxamide], for which, under setting [1], the EC50 came out at 1.71 µM. Moreover, the Emax (Table 2, human M1) is 72.9%.

For the compound `Cc1csc2c(Cc3ccc(-n4cccn4)cc3)cc(C(=O)NC3CCOCC3)nc12` [Compound 115, 3-methyl-7-[(4-pyrazol-1-ylphenyl)methyl]-N-tetrahydropyran-4-yl-thieno[3,2-b]pyridine-5-carboxamide], under setting [1], the EC50 stood at 1.05 µM. Besides, under “Table 2, human M1”, the Emax is 86.2%.

Take `Cc1nc(-c2ccc(Cc3cc(C(=O)N[C@@H]4COCC[C@H]4O)nc4ccsc34)cc2)co1` [Compound 167, N-[(3R,4R)-4-hydroxytetrahydropyran-3-yl]-7-[[4-(2-methyloxazol-4-yl)phenyl]methyl]thieno[3,2-b]pyridine-5-carboxamide]: under setting [1], the EC50 amounted to 0.0253 µM. Further, the Emax (Table 2, human M1) was 90.4%.

In the case of `Cc1csc2c(Cc3ccc(-n4cccn4)cc3)cc(C(=O)NC3COC3)nc12` [Compound 319, 3-methyl-N-(oxetan-3-yl)-7-[(4-pyrazol-1-ylphenyl)methyl]thieno[3,2-b]pyridine-5-carboxamide], the EC50 under setting [1] was 1.81 µM. In addition, for the setting “Table 2, human M1”, the Emax was 56.1%.

Take `CCN1CCC[C@H]1CNC(=O)c1cc(Cc2ccc(-c3ccn(C)n3)nc2)c2sccc2n1` [Compound 428]: under setting [1], the EC50 came out at 1.89 µM. In addition, the Emax (Table 2, human M1) came to 70.2%.

`Cn1cc(-c2ccc(Cc3cc(C(=O)NC4COC4)nc4ccsc34)cn2)cn1` [Compound 341, 7-[[6-(1-methylpyrazol-4-yl)-3-pyridyl]methyl]-N-(oxetan-3-yl)thieno[3,2-b]pyridine-5-carboxamide]: the EC50 under setting [1] was 1.69 µM. The Emax (Table 2, human M1) came out at 78.8%.

As for `Cc1nc(-c2ccc(Cc3cc(C(=O)N[C@H]4CCOC[C@@H]4O)nc4c(C)csc34)cc2)co1` [Compound 330, N-[(3R,4S)-3-hydroxytetrahydropyran-4-yl]-3-methyl-7-[[4-(2-methyloxazol-4-yl)phenyl]methyl]thieno[3,2-b]pyridine-5-carboxamide], the EC50 under setting [1] turned out to be 0.0228 µM. Besides, for the setting “Table 2, human M1”, the Emax amounted to 62.8%.

Regarding `Cc1ccc(Cc2cc(C(=O)Nc3cc(C)n[nH]3)nc3ccsc23)cn1` [Compound 69, N-(3-methyl-1H-pyrazol-5-yl)-7-[(6-methyl-3-pyridyl)methyl]thieno[3,2-b]pyridine-5-carboxamide], the EC50 under setting [1] is 6.82 µM. The Emax (Table 2, human M1) was 80.3%.

With `O=C(NC1COC1)c1cc(Cc2ccc(-c3nccs3)cc2)c2sccc2n1` [Compound 365, N-(oxetan-3-yl)-7-[(4-thiazol-2-ylphenyl)methyl]thieno[3,2-b]pyridine-5-carboxamide], the EC50 under setting [1] was 1.35 µM. Moreover, for the setting “Table 2, human M1”, the Emax amounted to 57.9%.

Consider `Cn1cc(-c2ccc(Oc3cc(C(=O)N[C@H]4CCOC[C@@H]4O)nc4ccsc34)c(F)c2)cn1` [Compound 7], for which the EC50 under setting [2] came to 3.26 µM.

For the compound `COC1CC(NC(=O)c2cc(Cc3ccc(-c4cn(C)nc4C)cc3)c3sccc3n2)C1` (stereo not shown) [Compound 246, 7-[[4-(1,3-dimethylpyrazol-4-yl)phenyl]methyl]-N-(3-methoxycyclobutyl)thieno[3,2-b]pyridine-5-carboxamide], under setting [1], the EC50 is above 10 µM. Besides, the Emax (Table 2, human M1) amounted to 16%.

Consider `Cn1ccc(-c2ccc(Cc3cc(C(=O)NC4CCOCC4)nc4ccn(C)c34)cn2)n1` [Compound 503, 1-methyl-7-[[6-(1-methylpyrazol-3-yl)-3-pyridyl]methyl]-N-tetrahydropyran-4-yl-pyrrolop,2-blpyridine-5-carboxamide;], for which the EC50 under setting [1] came to 1.56 µM. In addition, the Emax (Table 2, human M1) was 66.6%.

Turning to `Cc1nc(-c2ccc(Cc3cc(C(=O)N(C)C4CCOCC4)nc4ccsc34)cc2)cs1` [Compound 190], the EC50 under setting [1] stood at 6.14 µM. The maximum response (Emax) (Table 2, human M1) is 75.5%.

With `Cn1cc(-c2ccc(Cc3cc(C(=O)N[C@@H]4CC[C@H]4O)nc4ccsc34)c(F)c2)cn1` [Compound 55, 7-[[2-fluoro-4-(1-methylpyrazol-4-yl)phenyl]methyl]-N-[(1R,2R)-2-hydroxycyclobutyl]thieno[3,2-b]pyridine-5-carboxamide], the EC50 under setting [1] is 5.7 µM. In addition, the Emax (Table 2, human M1) is 31.1%.

For `Cn1cc(-c2ccc(Cc3cc(C(=O)NC4CC(F)C4)nc4ccsc34)cn2)cn1` (stereo not shown) [Compound 346, N-(3-fluorocyclobutyl)-7-[[6-(1-methylpyrazol-4-yl)-3-pyridyl]methyl]thieno[3,2-b]pyridine-5-carboxamide], the EC50 under setting [1] is 0.266 µM. For the setting “Table 2, human M1”, the Emax came out at 89.4%.

For the compound `Cn1ccc2nc(C(=O)NC3CCOC(C)(C)C3)cc(Cc3ccc(-c4nccs4)cc3)c21` (stereo not shown) [Compound 484, N-(2,2-dimethyltetrahydropyran-4-yl)-1-methyl-7-[(4-thiazol-2-ylphenyl)methyl]pyrrolo[3,2-b]pyridine-5-carboxamide], the Emax stood at 47.2%. Moreover, under setting [1], the half-maximal effective concentration (EC50) is 0.704 µM.

Regarding `O=C(NC1COC1)c1cc(Cc2ccc(-c3cscn3)cc2)c2sccc2n1` [Compound 202, N-(oxetan-3-yl)-7-[(4-thiazol-4-ylphenyl)methyl]thieno[3,2-b]pyridine-5-carboxamide], under setting [1], the concentration for a half-maximal effect (EC50) is 1.37 µM. For the same compound, the Emax (Table 2, human M1) was found to be 63.7%.

For `Cc1nc(-c2ccc(Cc3cc(C(=O)NC4CCCCC4)nc4ccsc34)cc2)co1` [Compound 162, N-cyclohexyl-7-[[4-(2-methyloxazol-4-yl)phenyl]methyl]thieno[3,2-b]pyridine-5-carboxamide], the EC50 under setting [1] worked out at 5.04 µM. Besides, under “Table 2, human M1”, the Emax stood at 74%.

As to `O=C(NC1CCCC1=O)c1cc(Cc2ccc(-n3cccn3)cc2)c2sccc2n1` (stereo not shown) [Compound 437, N-(2-oxocyclopentyl)-7-[(4-pyrazol-1-ylphenyl)methyl]thieno[3,2-b]pyridine-5-carboxamide], the EC50 under setting [1] turned out to be 0.201 µM. For the same compound, the Emax (Table 2, human M1) turned out to be 70%.
